Measurements: patent US8912200B2, “Alkynyl substituted pyrimidinyl-pyrroles active as kinases inhibitors” (Nerviano Medical Sciences S.R.L., priority 2011, dated 2014)
pIC50: −log10 of the molar value.

Assays:
JAK2 kinase domain = target: T1, JAK2 kinase domain (Homo sapiens, UniProt O60674); experiment: Biochemical assay for inhibitors of JAK kinase activity (JAK2, 33P-γ-ATP/dowex resin); settings: JAK2 kinase domain 1 nM, 60 μM ATP
T1 construct: commercially available JAK2 kinase domain; purchased Invitrogen, Eugene, Oreg
Text: Biochemical Assay for Inhibitors of JAK Kinase Activity
(§1) Specific JAK2, JAK1 or JAK3 peptide substrates are trans-phosphorylated by JAK kinases in the presence of ATP traced with 33P-γ-ATP. At the end of the phosphorylation reaction, the unreacted ATP, cold and radioactive, is captured by an excess of dowex ion exchange resin that eventually settles by gravity to the bottom of the reaction plate. The supernatant is subsequently withdrawn and transferred into a counting plate that is then evaluated by β-counting.
500 g of wet resin (SIGMA, custom prepared resin DOWEX 1×8 200-400 mesh, 2.5 Kg) are weighed out and diluted 2 to 1 in 150 mM sodium formate, pH 3.00. The resin is allowed to settle down overnight and then the supernatant is discarded. After three washes as above over a couple of days, the resin is allowed to settle and two volumes (with respect to the resin volume) of 150 mM sodium formate buffer are added.
Kinase buffer was composed of 50 mM HEPES pH 7.5 containing 10 mM MgCl2, 2.5 mM DTT, 10 μM Na3VO4 and 0.2 mg/mL BSA.
JAK2 Specific Assay Conditions
The JAK2 kinase assay was run with a final enzyme concentration of 1 nM, in the presence of 60 μM ATP, 3 nM 33P-γ-ATP and 64 μM of substrate BioDBn*306 (Aminoacid sequence: LPLDKDYYVVREPGQ—SEQ ID NO: 1). The peptidic substrate was purchased from American Peptide Company (Sunnyvale, Calif.).
(§2) For IC50 determination, test compounds are received as a 1 mM solution in 100% DMSO, distributed into 96 well plates: compounds are then plated into the first column of a microtiter plate (A1 to G1), 100 μL/well.
(§3) An automated station for serial dilutions (Biomek FX, Beckman) is used for producing 1:3 dilutions in 100% DMSO, from line A1 to A10, and for all the compounds in the column. Moreover, 4-5 copies of daughter plates are prepared by reformatting 5 μL of this first set of 100% DMSO dilution plates into 384 deep well-plates: one of these plates with the serial dilutions of test compounds will be thawed the day of the experiments, reconstituted at a 3× concentration with water and used in the IC50 determination assays. In a standard experiment, the highest concentration (3×) of all compounds is 30 μM, while the lowest one is 1.5 nM. Each 384 well-plate will contain at least one curve of the standard inhibitor staurosporine and reference wells (total enzyme activity vs. no enzymatic activity) for the Z′ and signal to background evaluation.
384-well plates, V bottom (test plates) are prepared with 5 μL of the compound dilution (3×) and then placed onto a PlateTrak 12 robotized station (Perkin Elmer; the robot has one 384-tip pipetting head for starting the assay plus one 96-tip head for dispensing the resin) together with one reservoir for the Enzyme mix (3×) and one for the ATP mix (3×). At the start of the run, the robot aspirates 5 μL of ATP mix, makes an air gap inside the tips (3 μl) and aspirates 5 μL of JAK2 mix. The following dispensation into the plates plus 3 cycles of mixing, done by the robot itself, starts the kinase reaction. At this point, the correct concentrations are restored for all the reagents. The robot incubates the plates for 60 minutes at room temperature, and then stops the reaction by pipetting 60 μL of dowex resin suspension into the reaction mix. In order to avoid tip clogging, wide bore tips are used to dispense the resin suspension. Three cycles of mixing are done immediately after the addition of the resin. Another mixing cycle is performed after all the plates are stopped, this time using normal tips: the plates are then allowed to rest for about one hour in order to allow resin sedimentation. At this point, 27 μL of the supernatant are transferred into 384-Optiplates (Perkin-Elmer), with 50 μL of Microscint 40 (Perkin-Elmer); after 5 min of orbital shaking the plates are read on a Perkin-Elmer Top Count radioactivity counter. […]

Lyn full length = target: T2, Lyn full length (Homo sapiens, UniProt P07948); experiment: Biochemical assay for inhibitors of Lyn (Src family) kinase activity; settings: Lyn full length 1 nM, 25 μM ATP
T2 construct: The assay has been performed using Lyn full length
Text: Biochemical Assay for Inhibitors of Lck and Lyn (Src Family) Kinases Activity
as §1, with “Lck and Lyn” for “JAK2, JAK1 or JAK3 peptide”, “Lck and Lyn” for “JAK”
Lyn Specific Assay Conditions
The assay has been performed using Lyn full length (accession number P07948 of UniProtKB/Swiss-Prot database).
Kinase buffer was composed of 50 mM HEPES pH 7.5 containing 3 mM MgCl2, 1 mM DTT, 3 μM Na3VO4, and 0.2 mg/mL BSA.
The Lyn kinase assay was run with a final enzyme concentration of 1 nM, in the presence of 25 μM ATP, 1.5 nM 33P-γ-ATP and 250 μM of substrate ABI 1 (Aminoacid sequence: EAIYAAPFAKKK—SEQ ID NO: 3). The peptidic substrate was purchased from American Peptide Company (Sunnyvale, Calif.).
as §2, §3
384-well plates, V bottom (test plates) are prepared with 5 μL of the compound dilution (3×) and then placed onto a PlateTrak 12 robotized station (Perkin Elmer; the robot has one 384-tip pipetting head for starting the assay plus one 96-tip head for dispensing the resin) together with one reservoir for the Enzyme mix (3×) and one for the ATP mix (3×). At the start of the run, the robot aspirates 5 μL of ATP mix, makes an air gap inside the tips (3 μl) and aspirates 5 μL of JAK2 mix. The following dispensation into the plates plus 3 cycles of mixing, done by the robot itself, starts the kinase reaction. At this point, the correct concentrations are restored for all the reagents. The robot incubates the plates for 60 minutes at room temperature, and then stops the reaction by pipetting 60 μL of dowex resin suspension into the reaction mix. In order to avoid tip clogging, wide bore tips are used to dispense the resin suspension. Three cycles of mixing are done immediately after the addition of the resin. Another mixing cycle is performed after all the plates are stopped, this time using normal tips: the plates are then allowed to rest for about one hour in order to allow resin sedimentation. At this point, 27 μL of the supernatant are transferred into 384-Optiplates (Perkin-Elmer), with 50 μL of Microscint 40 (Perkin-Elmer); after 5 min of orbital shaking the plates are read on a Perkin-Elmer Top Count radioactivity counter.
Data are analyzed by an internally customized version of the SW package “Assay Explorer” that provides sigmoidal fitting of the ten-dilutions curves for IC50 determination in the secondary assays/hit confirmation routines.

[1] = tested on: JAK2 dependent human megakaryoblastic leukemia cell line SET-2; experiment: Cell proliferation assay (CellTiter-Glo, 72 hours); format: cell-based; settings: Homo sapiens, SET-2 cells
Method: The JAK2 dependent human megakaryoblastic leukemia cell line SET-2 (DSMZ, Braunschweig GERMANY) and the JAK2 independent human chronic myelogenous leukaemia cell line K562 (ECACC, Wiltshire, UK) were cultured in RPMI-1640 medium-Glutamax (Gibco BRL, Gaithesburg, Md., USA), supplemented with 10% fetal bovine serum (FBS) at 37° C. and 5% CO2.
Cell Proliferation Assay:
Approximately 5×10^3 cells were plated into 384 microtiter plate wells in 50 μL of growth media with different concentrations of inhibitors. The cells were incubated at 37° C. and 5% CO2 for 72 hours, then the plates were processed using CellTiter-Glo assay (Promega, Madison, Wis., USA) following the manufacturer's instruction. Briefly 25 μL/well reagent solution is added to each well and after 5 minutes shaking the micro-plates are read by Envision luminometer (PerkinElmer, Waltham, Mass., USA).
Data are analyzed by Symix Assay Explorer software (Symix Technologies Inc.) that provides sigmoidal fitting algorithm of the 8 points dilutions curves for IC50 determination.

T2 sequence (P07948 whole entry): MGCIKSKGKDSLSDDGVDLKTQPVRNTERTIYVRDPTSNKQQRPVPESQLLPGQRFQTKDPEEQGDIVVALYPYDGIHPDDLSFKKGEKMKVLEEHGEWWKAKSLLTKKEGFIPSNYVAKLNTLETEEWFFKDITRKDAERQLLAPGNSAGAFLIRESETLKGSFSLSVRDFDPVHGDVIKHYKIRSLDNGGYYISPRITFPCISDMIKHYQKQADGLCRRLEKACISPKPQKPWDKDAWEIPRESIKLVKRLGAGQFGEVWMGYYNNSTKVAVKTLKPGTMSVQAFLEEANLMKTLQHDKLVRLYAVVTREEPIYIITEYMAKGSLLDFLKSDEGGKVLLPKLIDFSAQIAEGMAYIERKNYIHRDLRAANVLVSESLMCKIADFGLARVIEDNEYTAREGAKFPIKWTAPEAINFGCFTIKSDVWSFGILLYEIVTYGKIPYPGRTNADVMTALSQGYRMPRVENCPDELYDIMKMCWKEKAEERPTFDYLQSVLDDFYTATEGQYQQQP
T1 sequence (O60674 849-1124 limits assumed): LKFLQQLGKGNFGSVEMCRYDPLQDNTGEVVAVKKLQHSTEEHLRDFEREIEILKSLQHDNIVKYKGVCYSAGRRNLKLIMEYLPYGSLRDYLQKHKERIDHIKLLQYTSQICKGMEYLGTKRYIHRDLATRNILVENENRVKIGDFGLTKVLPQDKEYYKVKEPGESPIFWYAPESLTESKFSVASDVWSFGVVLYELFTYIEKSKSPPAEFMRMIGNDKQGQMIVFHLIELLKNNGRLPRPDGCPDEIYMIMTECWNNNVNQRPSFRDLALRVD

| pIC50 (JAK2 kinase domain) | pIC50 (Lyn full length) | pIC50 [1] | Compound |
| --- | --- | --- | --- |
| 8.40 | 8.22 | 6.80 | Cc1ccc(Cl)cc1-c1[nH]c(-c2nc(N)ncc2C#Cc2cccc(OC3CCN(C)CC3)c2)cc1C(N)=O [compound 32, 5-[2-Amino-5-({3-[(1-methylpiperidin-4-yl)oxy]phenyl}ethynyl)pyrimidin-4-yl]-2-(5-chloro-2-methylphenyl)-1H-pyrrole-3-carboxamide] |
| 7.96 | 8.05 | 6.62 | Cc1ccc(Cl)cc1-c1[nH]c(-c2nc(N)ncc2C#Cc2ccc(N3CCN(C)CC3)cc2F)cc1C(N)=O [compound 42, 5-(2-Amino-5-{[2-fluoro-4-(4-methylpiperazin-1-yl)phenyl]ethynyl}pyrimidin-4-yl)-2-(5-chloro-2-methylphenyl)-1H-pyrrole-3-carboxamide] |
| 8.30 | 7.70 | 6.85 | Cc1ccc(Cl)cc1-c1[nH]c(-c2nc(N)ncc2C#Cc2cc(N3CCN(C)CC3)ccc2F)cc1C(N)=O [compound 49, 5-(2-Amino-5-{[2-fluoro-5-(4-methylpiperazin-1-yl)phenyl]ethynyl}pyrimidin-4-yl)-2-(5-chloro-2-methylphenyl)-1H-pyrrole-3-carboxamide] |
| 8.15 | 7.59 | 5.86 | Cc1ccc(Cl)cc1-c1[nH]c(-c2nc(N)ncc2C#CCN2CCN(C)CC2)cc1C(N)=O [compound 50, 5-{2-Amino-5-[3-(4-methylpiperazin-1-yl)prop-1-yn-1-yl]pyrimidin-4-yl}-2-(5-chloro-2-methylphenyl)-1H-pyrrole-3-carboxamide] |
| 9.00 | 9.00 | 6.72 | Cc1ccc(Cl)cc1-c1[nH]c(-c2nc(N)ncc2C#Cc2ccc(CN3CCCC3)cc2)cc1C(N)=O [compound 66, 5-(2-Amino-5-{[4-(pyrrolidin-1-ylmethyl)phenyl]ethynyl}pyrimidin-4-yl)-2-(5-chloro-2-methylphenyl)-1H-pyrrole-3-carboxamide] |

More lines, now with the values behind:

| Compound | pIC50 (JAK2 kinase domain) | pIC50 (Lyn full length) | pIC50 [1] |
| --- | --- | --- | --- |
| COc1ccc(N2CCN(C)CC2)cc1C#Cc1cnc(N)nc1-c1cc(C(N)=O)c(-c2cc(Cl)ccc2C)[nH]1 [compound 34, 5-(2-Amino-5-{[2-methoxy-5-(4-methylpiperazin-1-yl)phenyl]ethynyl}pyrimidin-4-yl)-2-(5-chloro-2-methylphenyl)-1H-pyrrole-3-carboxamide] | 8.30 | 7.70 | 6.17 |
| COc1cc(N2CCN(C)CC2)ccc1C#Cc1cnc(N)nc1-c1cc(C(N)=O)c(-c2cc(Cl)ccc2C)[nH]1 [compound 46, 5-(2-Amino-5-{[2-methoxy-4-(4-methylpiperazin-1-yl)phenyl]ethynyl}pyrimidin-4-yl)-2-(5-chloro-2-methylphenyl)-1H-pyrrole-3-carboxamide] | 8.22 | 7.74 | 6.54 |
| Cc1ccc(Cl)cc1-c1[nH]c(-c2nc(N)ncc2C#Cc2cccc(N3CCN(C)CC3)c2)cc1C(N)=O [compound 47, 5-(2-Amino-5-{[3-(4-methylpiperazin-1-yl)phenyl]ethynyl}pyrimidin-4-yl)-2-(5-chloro-2-methylphenyl)-1H-pyrrole-3-carboxamide] | 8.52 | 8.22 | 6.66 |
| Cc1ccc(Cl)cc1-c1[nH]c(-c2nc(N)ncc2C#Cc2ccc(OC3CCN(C)CC3)cc2)cc1C(N)=O [compound 48, 5-[2-Amino-5-({4-[(1-methylpiperidin-4-yl)oxy]phenyl}ethynyl)pyrimidin-4-yl]-2-(5-chloro-2-methylphenyl)-1H-pyrrole-3-carboxamide] | 8.22 | 8.10 | 6.80 |
| Cc1ccc(Cl)cc1-c1[nH]c(-c2nc(N)ncc2C#Cc2cccc(NCCN)c2)cc1C(N)=O [compound 63, 5-[2-Amino-5-({3-[(2-aminoethyl)amino]phenyl}ethynyl)pyrimidin-4-yl]-2-(5-chloro-2-methylphenyl)-1H-pyrrole-3-carboxamide] | 8.52 | 8.30 | 7.00 |
